Experimental data from paper PMC6218957, “VS-4718 Antagonizes Multidrug Resistance in ABCB1- and ABCG2-Overexpressing Cancer Cells by Inhibiting the Efflux Function of ABC Transporters” (Frontiers in Pharmacology, 2018).
pEC50: −log10 of the molar value.

Key:
ABCG2 [1] = target: T1, ABCG2 (Homo sapiens, UniProt Q9UNQ0)
T1 sequence (Q9UNQ0 1-655): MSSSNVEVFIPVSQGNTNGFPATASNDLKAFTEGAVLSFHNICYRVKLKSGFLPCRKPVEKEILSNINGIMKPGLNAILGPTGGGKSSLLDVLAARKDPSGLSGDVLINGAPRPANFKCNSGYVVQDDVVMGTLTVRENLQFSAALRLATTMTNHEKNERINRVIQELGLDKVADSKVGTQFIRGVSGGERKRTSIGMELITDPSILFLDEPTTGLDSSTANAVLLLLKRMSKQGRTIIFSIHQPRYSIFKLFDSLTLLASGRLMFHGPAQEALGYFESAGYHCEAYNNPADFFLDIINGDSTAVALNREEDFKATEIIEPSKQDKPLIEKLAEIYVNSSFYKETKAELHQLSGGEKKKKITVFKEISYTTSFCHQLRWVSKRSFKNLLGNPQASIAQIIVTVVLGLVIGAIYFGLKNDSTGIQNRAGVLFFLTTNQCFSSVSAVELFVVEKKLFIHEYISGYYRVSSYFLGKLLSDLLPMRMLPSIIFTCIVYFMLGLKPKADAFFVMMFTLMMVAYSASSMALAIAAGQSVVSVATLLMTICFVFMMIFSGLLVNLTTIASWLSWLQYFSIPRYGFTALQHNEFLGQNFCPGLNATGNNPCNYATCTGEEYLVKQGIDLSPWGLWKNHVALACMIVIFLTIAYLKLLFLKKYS

ABCB1 [2] = target: T2, ABCB1 (Homo sapiens, UniProt P08183)
T2 sequence (P08183 whole entry): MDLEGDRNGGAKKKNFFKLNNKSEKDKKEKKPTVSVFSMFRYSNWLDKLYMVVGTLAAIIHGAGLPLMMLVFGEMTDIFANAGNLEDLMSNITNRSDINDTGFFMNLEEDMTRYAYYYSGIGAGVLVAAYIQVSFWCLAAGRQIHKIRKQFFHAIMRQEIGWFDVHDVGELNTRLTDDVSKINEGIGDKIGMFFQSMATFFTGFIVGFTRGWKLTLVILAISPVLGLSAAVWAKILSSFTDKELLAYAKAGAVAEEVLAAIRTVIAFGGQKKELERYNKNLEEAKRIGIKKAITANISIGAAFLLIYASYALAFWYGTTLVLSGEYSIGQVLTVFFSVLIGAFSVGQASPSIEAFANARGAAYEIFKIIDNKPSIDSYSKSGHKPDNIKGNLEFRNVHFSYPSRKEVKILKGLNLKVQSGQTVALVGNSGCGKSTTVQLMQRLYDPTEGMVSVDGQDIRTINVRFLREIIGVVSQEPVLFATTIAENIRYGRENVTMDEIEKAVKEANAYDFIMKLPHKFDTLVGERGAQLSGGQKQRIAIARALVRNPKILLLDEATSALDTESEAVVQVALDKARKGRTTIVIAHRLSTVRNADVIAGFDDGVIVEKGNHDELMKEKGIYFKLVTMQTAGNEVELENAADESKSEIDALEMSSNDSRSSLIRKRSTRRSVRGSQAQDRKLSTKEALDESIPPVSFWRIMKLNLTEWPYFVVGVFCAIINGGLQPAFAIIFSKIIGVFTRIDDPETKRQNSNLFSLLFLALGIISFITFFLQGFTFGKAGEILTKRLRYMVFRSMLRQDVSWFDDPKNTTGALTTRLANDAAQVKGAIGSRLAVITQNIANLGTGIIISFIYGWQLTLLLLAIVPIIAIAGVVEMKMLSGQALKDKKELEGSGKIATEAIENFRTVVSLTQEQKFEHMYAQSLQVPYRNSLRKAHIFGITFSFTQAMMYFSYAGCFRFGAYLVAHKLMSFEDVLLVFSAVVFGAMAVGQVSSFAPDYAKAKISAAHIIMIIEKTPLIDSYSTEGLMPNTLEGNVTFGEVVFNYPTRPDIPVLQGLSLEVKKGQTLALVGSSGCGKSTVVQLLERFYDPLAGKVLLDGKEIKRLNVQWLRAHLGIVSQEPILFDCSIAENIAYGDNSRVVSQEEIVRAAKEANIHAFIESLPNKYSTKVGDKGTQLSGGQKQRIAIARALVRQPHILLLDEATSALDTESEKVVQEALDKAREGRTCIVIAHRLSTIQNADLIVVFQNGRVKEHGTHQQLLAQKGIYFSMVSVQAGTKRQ

ABCG2 [3] = target: T1, ABCG2; assay: biochemical; design: cell membranes that overexpressed ABCG2
ABCB1 [4] = target: T2, ABCB1; assay: ATPase stimulation in ABCB1-overexpressing membranes; also [3H]-paclitaxel accumulation/efflux inhibition in KB-C2 cells; assay type: biochemical; design: cell membranes that overexpressed ABCB1

`O=C1c2c(O)ccc(O)c2C(=O)c2c(NCCNCCO)ccc(NCCNCCO)c21` [Mitoxantrone] was tested, and the “radiolabelled efflux/accumulation in ABCG2-overexpressing NCI-H460/MX20 vs paren” value (ABCG2 [1]) was “[^3H]-mitoxantrone efflux in ABCG2-overexpressing NCI-H460/MX20 cells”.
`CC(=O)O[C@H]1C(=O)[C@@]2(C)[C@H]([C@H](OC(=O)c3ccccc3)[C@]3(O)C[C@H](OC(=O)[C@H](O)[C@@H](NC(=O)c4ccccc4)c4ccccc4)C(C)=C1C3(C)C)[C@]1(OC(C)=O)CO[C@@H]1C[C@@H]2O` [Paclitaxel] was tested, and the “radiolabelled efflux/accumulation in ABCB1-overexpressing KB-C2 vs parental KB-3” value (ABCB1 [2]) was “VS-4718 significantly reduced the efflux of [^3H]-paclitaxel in ABCB1-overexpressing KB-C2 cells”.
Compound `CNC(=O)c1ccccc1Nc1cc(Nc2ccc(N3CCOCC3)cc2OC)ncc1C(F)(F)F` [VS-4718] has a pEC50 (ABCG2 [3]) of 5.02 and a pEC50 (ABCB1 [4]) of 5.76.
